Values after ≈ are worked out from the molar mass of the structure shown.
Experiments:
[1] = test system: Clostridium beijerinckii; test: Antibacterial activity against Clostridium beijerinckii by CLSI M11-A6 agar dilution method in presence of beta-lactamase inhibitor Sulbactam; format: functional
[2] = test system: Bilophila wadsworthia; test: Antibacterial activity against Bilophila wadsworthia by CLSI M11-A6 agar dilution method in presence of beta-lactamase inhibitor Sulbactam; format: functional
[3] = test system: Anaerococcus prevotii; test: Antibacterial activity against Anaerococcus prevotii by CLSI M11-A6 agar dilution method in presence of beta-lactamase inhibitor Sulbactam; format: functional
[4] = test system: Parabacteroides merdae; test: Antibacterial activity against Parabacteroides merdae by CLSI M11-A6 agar dilution method in presence of beta-lactamase inhibitor Sulbactam; format: functional
[5] = test system: Prevotella melaninogenica; test: Antibacterial activity against Prevotella melaninogenica by CLSI M11-A6 agar dilution method; format: functional
[6] = test system: Prevotella intermedia; test: Antibacterial activity against Prevotella intermedia by CLSI M11-A6 agar dilution method; format: functional
[7] = test system: Bifidobacterium dentium; test: Antibacterial activity against Bifidobacterium dentium by CLSI M11-A6 agar dilution method; format: functional
[8] = test system: Bifidobacterium breve; test: Antibacterial activity against Bifidobacterium breve by CLSI M11-A6 agar dilution method; format: functional
[9] = test system: Bifidobacterium bifidum; test: Antibacterial activity against Bifidobacterium bifidum by CLSI M11-A6 agar dilution method; format: functional
[10] = test system: Coriobacterium; test: Antibacterial activity against […] by CLSI M11-A6 agar dilution method; format: functional
[11] = test system: Clostridium sporosphaeroides; test: Antibacterial activity against Clostridium sporosphaeroides by CLSI M11-A6 agar dilution method; format: functional; settings: Faecalispora sporosphaeroides
[12] = test system: Catenibacterium mitsuokai; test: Antibacterial activity against Catenibacterium mitsuokai by CLSI M11-A6 agar dilution method; format: functional
[13] = test system: Bacteroides ovatus; test: Antibacterial activity against Bacteroides ovatus by CLSI M11-A6 agar dilution method; format: functional
[14] = test system: Clostridium spiroforme; test: Antibacterial activity against Clostridium spiroforme by CLSI M11-A6 agar dilution method; format: functional; settings: Thomasclavelia spiroformis
[15] = test system: Holdemania filiformis; test: Antibacterial activity against Holdemania filiformis by CLSI M11-A6 agar dilution method; format: functional
[16] = test system: Paeniclostridium sordellii; test: Antibacterial activity against Clostridium sordellii by CLSI M11-A6 agar dilution method; format: functional; settings: Paraclostridium sordellii
[17] = test system: Prevotella corporis; test: Antibacterial activity against Prevotella corporis by CLSI M11-A6 agar dilution method; format: functional
[18] = test system: [Clostridium] innocuum; test: Antibacterial activity against Clostridium innocuum by CLSI M11-A6 agar dilution method; format: functional
[19] = test system: Prevotella oris; test: Antibacterial activity against Prevotella oris by CLSI M11-A6 agar dilution method; format: functional; settings: Segatella oris
[20] = test system: Clostridium celerecrescens; test: Antibacterial activity against Clostridium celerecrescens by CLSI M11-A6 agar dilution method; format: functional; settings: Lacrimispora celerecrescens
[21] = test system: Clostridium butyricum; test: Antibacterial activity against Clostridium butyricum by CLSI M11-A6 agar dilution method; format: functional
[22] = test system: Prevotella intermedia; test: Antibacterial activity against Prevotella P intermedia by CLSI M11-A6 agar dilution method; format: functional
[23] = test system: Clostridium bolteae; test: Antibacterial activity against Clostridium bolteae by CLSI M11-A6 agar dilution method; format: functional; settings: Enterocloster bolteae
[24] = test system: Prevotella buccae; test: Antibacterial activity against Prevotella buccae by CLSI M11-A6 agar dilution method; format: functional; settings: Segatella buccae
[25] = test system: Ruminococcus obeum; test: Antibacterial activity against Ruminococcus obeum by CLSI M11-A6 agar dilution method; format: functional; settings: Blautia obeum
[26] = test system: Blautia producta; test: Antibacterial activity against Ruminococcus productus by CLSI M11-A6 agar dilution method; format: functional
[27] = test system: Hoylesella loescheii; test: Antibacterial activity against Prevotella loescheii by CLSI M11-A6 agar dilution method; format: functional
[28] = test system: Paraclostridium bifermentans; test: Antibacterial activity against Clostridium bifermentans by CLSI M11-A6 agar dilution method; format: functional
[29] = Antibacterial activity against Bifidobacterium infantis by CLSI M11-A6 agar dilution method; format: functional, Bifidobacterium longum subsp. infantis; settings: Bifidobacterium longum
[30] = test system: Bacteroides fragilis; test: Antibacterial activity against Bacteroides fragilis by CLSI M11-A6 agar dilution method; format: functional
[31] = test system: Clostridium disporicum; test: Antibacterial activity against Clostridium disporicum by CLSI M11-A6 agar dilution method; format: functional
[32] = test system: Anaerococcus tetradius; test: Antibacterial activity against Anaerococcus tetradius by CLSI M11-A6 agar dilution method; format: functional
[33] = test system: Clostridium; test: Antibacterial activity against Clostridium hypermegas by CLSI M11-A6 agar dilution method; format: functional
[34] = test system: Peptostreptococcus anaerobius; test: Antibacterial activity against Peptostreptococcus anaerobius by CLSI M11-A6 agar dilution method; format: functional
[35] = test system: Clostridioides difficile; test: Antibacterial activity against Clostridium difficile by CLSI M11-A6 agar dilution method; format: functional
[36] = test system: Clostridium sp.; test: Antibacterial activity against Clostridium sp. by CLSI M11-A6 agar dilution method; format: functional
[37] = test system: Clostridium glycolicum; test: Antibacterial activity against Clostridium glycolicum by CLSI M11-A6 agar dilution method; format: functional; settings: Terrisporobacter glycolicus
[38] = test system: Coprobacillus cateniformis; test: Antibacterial activity against Coprobacillus cateniformis by CLSI M11-A6 agar dilution method; format: functional
[39] = test system: Blautia luti; test: Antibacterial activity against Ruminococcus luti by CLSI M11-A6 agar dilution method; format: functional
[40] = test system: Eggerthella lenta; test: Antibacterial activity against Eggerthella lenta by CLSI M11-A6 agar dilution method; format: functional
[41] = test system: Clostridium leptum; test: Antibacterial activity against Clostridium leptum by CLSI M11-A6 agar dilution method; format: functional
[42] = test system: Anaerococcus prevotii; test: Antibacterial activity against Anaerococcus prevotii by CLSI M11-A6 agar dilution method; format: functional
[43] = test system: Ruminococcus flavefaciens; test: Antibacterial activity against Ruminococcus flavefaciens by CLSI M11-A6 agar dilution method; format: functional

## CC1(C)S[C@@H]2[C@H](NC(=O)[C@H](N)c3ccccc3)C(=O)N2[C@H]1C(=O)O [AMPICILLIN]
[1]
  MIC50: 0.25 µg/mL
  MIC90: 1 µg/mL
[2]
  MIC50: 2 µg/mL
  MIC90: 4 µg/mL
[3]
  MIC50: 0.25 µg/mL
  MIC90: 0.5 µg/mL
[4]
  MIC50: 8 µg/mL
  MIC90: 32 µg/mL

## Cc1ncc([N+](=O)[O-])n1CCO [METRONIDAZOLE]
[5]
  MIC50: 0.5 µg/mL (≈ 2.92 µM)
  MIC90: 1 µg/mL (≈ 5.84 µM)
[6]
  MIC50: 0.5 µg/mL (≈ 2.92 µM)
  MIC90: 1 µg/mL (≈ 5.84 µM)
[7]
  MIC50: 1 µg/mL (≈ 5.84 µM)
  MIC90: 128 µg/mL (≈ 748 µM)
[8]
  MIC50: 1 µg/mL (≈ 5.84 µM)
  MIC90: 128 µg/mL (≈ 748 µM)
[9]
  MIC50: 1 µg/mL (≈ 5.84 µM)
  MIC90: 128 µg/mL (≈ 748 µM)
[10]
  MIC50: 1 µg/mL (≈ 5.84 µM)
  MIC90: 128 µg/mL (≈ 748 µM)
[11]
  MIC50: 0.25 µg/mL (≈ 1.46 µM)
  MIC90: 1 µg/mL (≈ 5.84 µM)
[12]
  MIC50: 1 µg/mL (≈ 5.84 µM)
  MIC90: 128 µg/mL (≈ 748 µM)
[13]
  MIC50: 1 µg/mL (≈ 5.84 µM)
  MIC90: 2 µg/mL (≈ 11.7 µM)
[14]
  MIC50: 0.25 µg/mL (≈ 1.46 µM)
  MIC90: 1 µg/mL (≈ 5.84 µM)
[15]
  MIC50: 1 µg/mL (≈ 5.84 µM)
  MIC90: 128 µg/mL (≈ 748 µM)
[16]
  MIC50: 0.25 µg/mL (≈ 1.46 µM)
  MIC90: 1 µg/mL (≈ 5.84 µM)
[17]
  MIC50: 0.5 µg/mL (≈ 2.92 µM)
  MIC90: 1 µg/mL (≈ 5.84 µM)
[18]
  MIC50: 0.5 µg/mL (≈ 2.92 µM)
  MIC90: 4 µg/mL (≈ 23.4 µM)
[19]
  MIC50: 0.5 µg/mL (≈ 2.92 µM)
  MIC90: 1 µg/mL (≈ 5.84 µM)
[20]
  MIC50: 0.25 µg/mL (≈ 1.46 µM)
  MIC90: 1 µg/mL (≈ 5.84 µM)
[21]
  MIC50: 0.25 µg/mL (≈ 1.46 µM)
  MIC90: 1 µg/mL (≈ 5.84 µM)
[22]
  MIC50: 0.5 µg/mL (≈ 2.92 µM)
  MIC90: 1 µg/mL (≈ 5.84 µM)
[23]
  MIC50: ≤ 0.12 µg/mL
  MIC90: 0.25 µg/mL (≈ 1.46 µM)
[24]
  MIC50: 0.5 µg/mL (≈ 2.92 µM)
  MIC90: 1 µg/mL (≈ 5.84 µM)
[25]
  MIC50: ≤ 0.12 µg/mL
  MIC90: ≤ 0.12 µg/mL
[26]
  MIC50: ≤ 0.12 µg/mL
  MIC90: 0.25 µg/mL (≈ 1.46 µM)
[27]
  MIC50: 0.5 µg/mL (≈ 2.92 µM)
  MIC90: 1 µg/mL (≈ 5.84 µM)
[28]
  MIC50: 0.25 µg/mL (≈ 1.46 µM)
  MIC90: 1 µg/mL (≈ 5.84 µM)
[29]
  MIC50: 1 µg/mL (≈ 5.84 µM)
  MIC90: 128 µg/mL (≈ 748 µM)
[30]
  MIC50: 1 µg/mL (≈ 5.84 µM)
  MIC90: 2 µg/mL (≈ 11.7 µM)
[31]
  MIC50: 0.25 µg/mL (≈ 1.46 µM)
  MIC90: 1 µg/mL (≈ 5.84 µM)
[32]
  MIC50: 0.5 µg/mL (≈ 2.92 µM)
  MIC90: 2 µg/mL (≈ 11.7 µM)
[33]
  MIC50: 0.25 µg/mL (≈ 1.46 µM)
  MIC90: 1 µg/mL (≈ 5.84 µM)
[34]
  MIC50: 0.5 µg/mL (≈ 2.92 µM)
  MIC90: 2 µg/mL (≈ 11.7 µM)
[35]
  MIC50: 0.5 µg/mL (≈ 2.92 µM)
  MIC90: 0.5 µg/mL (≈ 2.92 µM)
[36]
  MIC50: 0.25 µg/mL (≈ 1.46 µM)
  MIC90: 1 µg/mL (≈ 5.84 µM)
[37]
  MIC50: 0.25 µg/mL (≈ 1.46 µM)
  MIC90: 1 µg/mL (≈ 5.84 µM)
[38]
  MIC50: 1 µg/mL (≈ 5.84 µM)
  MIC90: 128 µg/mL (≈ 748 µM)
[39]
  MIC50: ≤ 0.12 µg/mL
  MIC90: 0.25 µg/mL (≈ 1.46 µM)
[40]
  MIC50: 1 µg/mL (≈ 5.84 µM)
  MIC90: 128 µg/mL (≈ 748 µM)
[41]
  MIC50: 0.25 µg/mL (≈ 1.46 µM)
  MIC90: 1 µg/mL (≈ 5.84 µM)
[42]
  MIC50: 0.5 µg/mL (≈ 2.92 µM)
  MIC90: 2 µg/mL (≈ 11.7 µM)
[43]
  MIC50: ≤ 0.12 µg/mL
  MIC90: 0.25 µg/mL (≈ 1.46 µM)

Reference: ChEMBL document CHEMBL1671662, “In vitro activities of telavancin and six comparator agents against anaerobic bacterial isolates” (2009)
